Laboratory results published in patent US7005138B2, “Method of systematically delivering SSRIs” (Duramed Pharmaceuticals, Inc., priority 2001, dated 2006).

How the values were obtained:
[1] = oral administration; cited from earlier work
[2] = Rabbit study: plasma levels of fluoxetine and norfluoxetine after single oral vs. intravaginal dose
Description: (§1) A study was designed to compare the pharmacokinetic profiles of oral vs. intravaginal administration of fluoxetine in white albino female New Zealand rabbits. The study compared the blood levels of fluoxetine and/or its metabolites in the rabbits after either a single oral dose or a single intravaginal dose of fluoxetine hydrochloride. Both oral (tablet) and intravaginal (transvaginal insert) administration delivered the standard human daily dose of 20 mg fluoxetine hydrochloride to each rabbit. The oral route was used to compare the bioavailability of fluoxetine by the two routes of administration.
(§2) Three rabbits received the fluoxetine tablets orally, while three rabbits received fluoxetine inserts intravaginally. The fluoxetine tablets were administered orally using an animal pilling device. The fluoxetine inserts were administered by insertion into the vaginas of the rabbits. The inserts remained in place for 2–4 hours, after which they were removed. Removal was accomplished by using an appropriate instrument to grasp the extension on the back of the insert. If an insert was expelled from an animal before removal, it was noted but not replaced. Both tablets and intravaginal inserts were administered once on Day 0.
Blood samples were obtained for the determination of plasma concentrations of fluoxetine. Starting on Day 0, blood samples were obtained for toxicokinetic determinations from all animals pretest and at 1, 3, 8, 12, 16, 24, 36, 48, 72, 96, 120, 144, 168, 240, 360, 480, 672 and 840 hours post-dose. Pre-dose samples were collected one week prior to dosing. Approximately 1.5 mL of whole blood was obtained from the medial auricular artery of the unanesthetized rabbits, unfasted, and were preserved using ethylenediamine tetraacetic acid (EDTA). […]
The EDTA preserved rabbit plasma samples were analyzed for fluoxetine and norfluoxetine using a solid phase extraction (SPE) technique. […]
Samples were evaluated using a solid phase extraction technique using conditioned SPE cartridges, then analyzed via HPLC and mass spectroscopy. […]

[3] = rabbit
Description: as §1, §2
The animals were observed twice daily for mortality and general condition. Animals in poor health were identified and further monitored. In addition, observations were made for any signs of toxic or pharmacologic effects (e.g., abnormalities in general, appearance, activity, behavior, respiration, etc.).

[4] = rabbit, cited from earlier work

mean plasma levels of metabolite norfluoxetine, intravaginal delivery compared to oral delivery ([2]; after fluoxetine single 20 mg dose) | mean norfluoxetine levels, persistence ([2]; oral group) | SMILES | half life [1] [h] | decreased food consumption ([3]; in vivo, po) | differences in clinical observations or body weights between administration methods ([3]; in vivo, po) | mortality ([3]; oral tablet and intravaginal insert groups, length of the study) | fluoxetine plasma levels after 72 hours ([2]; in vivo, po) | tolerability of repeated daily doses ([4]; in vivo) | mortality with repeated daily doses ([4]; up to 7.5 mg/kg/day)
much lower | present throughout most of the study | NCCC(Oc1ccc(C(F)(F)F)cc1)c1ccccc1 (stereo not shown) [norfluoxetine] | 170 to 220 |  |  |  |  |  | 
 |  | CNCCC(Oc1ccc(C(F)(F)F)cc1)c1ccccc1 (racemic) [fluoxetine, dl-N-methyl-γ-[4-(trifluoromethyl)phenoxy]benzenepropanamine] | 48 to 72 | One animal from each treatment group | no differences | No mortality | almost undetectable | fairly well tolerated | not associated with mortality
